Laboratory results from patent US9493485B2, “Spirocyclic dihydro-thiazine and dihydro-oxazine BACE inhibitors, and compositions and uses thereof” (Imago Pharmaceuticals, Inc., priority 2012, dated 2016).
Where two headings read alike, the source gives them in different places.

Legend:
[1] = target: T1, BACE1 (Homo sapiens (Human), UniProt P56817); assay: BACE1 AlphaScreen assay (displacement of biotinylated BACE1 binding site probe); conditions: read-out: BACE1 AS IC50
Description: (§1) BACE1 activity can be assessed in an AlphaScreen® assay. Compounds to be assessed (e.g. compounds as described in the above examples) are serially diluted 1:4 in DMSO, then plated by diluting 10 μL of compound with 40 μl of assay buffer (1×PBS, 0.01% Tween-20, pH 7.0, 0.05% BSA). The diluted compound is transferred (4 μL per well) to a 386 well assay plate and 4 μL of BACE1 enzyme ([…]) is added and incubated for 15 minutes. This assay uses a probe that is a BACE1 binding sight ligand linked to biotin, which can be displaced by test compound dependent on compound binding affinity. This of biotinylated probe (4 μL) is added and incubated for 1 hour, followed with 4 μL of donor and acceptor bead mixture and incubated for 2 hours. The fluorescent signal is read on a plate reader and the value as a function of compound concentration is used to determine the IC50. Compounds are also assessed for BACE1 and Cathepsin D activity using an FP Assay. Compounds to be assessed (e.g. compounds as described in the above examples) are serially diluted 1:3 with DMSO and each concentration point is transferred to a 96 well plate, 6 μL per well, followed by addition of 194 μL of assay buffer (100 mM sodium acetate, pH 4.5 with 0.001% Tween-20). A 10 μL compound sample from this plate is transferred to a well of a 384 well plate and combined with 10 μL per well of BACE1 enzyme (0.3 nM in assay buffer) or Cathepsin D enzyme (1.8 nM in assay buffer) and the plate is incubated at room temperature for 30 minutes.

[2] = system: BACE1 inhibition in HEKp293 cells transfected with APP751 gene (SWE293); assay: SWE293 cellular assay: reduction of Aβ peptide production, ELISA; type: cell-based; conditions: Homo sapiens, read-out: SWE293 ED50
Description: BACE1 inhibition is also assessed in a cellular assay. HEKp293 cells transfected with APP751 gene (SWE293, American Type Culture Collection CRL-1563) are used to assess compounds for reduction in levels of Aβ peptide production. SWE293 cell medium is DMEM supplemented with 10% fetal bovine serum and 2 mM L-glutamine, 1.0 mM sodium pyruvate, 25 mM Hepes Buffer, 0.4 mg/mL geneticin (G418, Gibco BRL 860-181IIJ). Cells are maintained diluting 1:10 for 4 days in T-150 flask and 35 mL of cell media. For plating, cells are rinsed with 5 mL of 1×PBS, trypsinized with 4 mL of 0.05% Tripsin for 1 minute, and 12 mL of cell media is added. These are centrifuged at 1000 rpm for 4 minutes and the media aspirated, then 8 mL of media per flask is added. Based on cell count, appropriate amounts of cell and cell media are combined, and 180 μl per well are plated (96 well) and the plates are incubated overnight at 37° C., 5% CO2. Compounds to be tested are serially diluted 1:3 in DMSO and twice in media (without G418) in V-bottom plates and incubated at room temperature. Plated cells are washed with media, 3×50 μL per well and 17 μL per well of appropriate dilution of compound is added. Plates are incubated for 2 hours, and the wash steps, compound addition and incubation are repeated. Sample is transferred to capture plate (prepared with 266 antibody, see e.g. Johnson-Wood et al., PNAS February 1997, 94: 1550-1555), along with a standard curve of Aβ-40. ELISA assay is used to assess Aβ levels, washing with TBS, 0.05% Tween20 pH 7.5, then adding 1.3 mg/mL 3D6 antibody 1:900 in specimen diluents with thimericol is added (100 μl per well) and incubated for 1 hour. Wash step is repeated and Streptavidin-AP diluted 1:1000 in specimen diluents with thimerisol is added (100 μL per well) and incubated for 1 hour. Wash step is repeated and fluorescent substrate is added, 100 μL per well and incubated for 10 minutes followed by reading the fluorescent signal on a plate reader.

[3] = target: T1, BACE1; assay: BACE1 FP assay; type: biochemical; conditions: pH 4.5
Description: as §1

[4] = target: Cathepsin D (Homo sapiens (Human), UniProt P07339); assay: Cathepsin D FP assay; type: biochemical; conditions: pH 4.5, read-out: CatD FP IC50
Description: as §1

[5] = dose at which Aβ level is reduced by 50%, HEKp293 SWE293 cells

T1 sequence (P56817 46-501): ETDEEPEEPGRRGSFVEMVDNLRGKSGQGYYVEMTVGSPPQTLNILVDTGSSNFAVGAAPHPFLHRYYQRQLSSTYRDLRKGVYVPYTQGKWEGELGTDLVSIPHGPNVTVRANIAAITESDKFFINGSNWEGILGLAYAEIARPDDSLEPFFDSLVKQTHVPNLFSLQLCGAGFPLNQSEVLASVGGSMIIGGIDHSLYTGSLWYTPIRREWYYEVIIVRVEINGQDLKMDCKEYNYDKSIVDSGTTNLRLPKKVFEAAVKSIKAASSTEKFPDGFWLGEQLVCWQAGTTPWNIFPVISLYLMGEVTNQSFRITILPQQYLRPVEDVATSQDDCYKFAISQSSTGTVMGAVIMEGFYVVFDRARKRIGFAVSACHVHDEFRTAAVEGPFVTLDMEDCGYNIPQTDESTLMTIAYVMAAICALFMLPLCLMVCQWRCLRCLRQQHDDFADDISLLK
Sequence of Cathepsin D (P07339 65-412, species assumed): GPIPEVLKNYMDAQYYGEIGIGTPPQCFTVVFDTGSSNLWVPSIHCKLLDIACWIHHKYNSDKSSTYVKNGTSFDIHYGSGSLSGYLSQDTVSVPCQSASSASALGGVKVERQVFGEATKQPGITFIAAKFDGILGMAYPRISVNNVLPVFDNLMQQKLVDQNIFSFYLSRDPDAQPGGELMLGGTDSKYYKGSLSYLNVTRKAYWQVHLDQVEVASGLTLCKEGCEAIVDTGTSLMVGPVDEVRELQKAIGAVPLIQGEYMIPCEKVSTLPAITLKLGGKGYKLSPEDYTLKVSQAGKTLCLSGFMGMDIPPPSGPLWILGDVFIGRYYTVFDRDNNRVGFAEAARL

Compound `CC#Cc1cncc(-c2csc(C3(C)CC4(CCOCC4)OC(N)=N3)c2)c1` (centres unmarked) [Compound 8-102, 4-methyl-4-(4-(5-(prop-1-ynyl)pyridin-3-yl)thiophen-2-yl)-1,9-dioxa-3-azaspiro[5.5]undec-2-en-2-amine] has an IC50 [1] of 0.069 µM, an IC50 [2] of 0.365 µM and an IC50 [3] of 2.29 µM. It also gave an IC50 [4] of 4.43 µM.

`CC#Cc1cncc(-c2csc(C3(C)CC4(CCC4)OC(N)=N3)c2)c1` (centres unmarked) [Compound 8-103, 8-methyl-8-(4-(5-(prop-1-ynyl)pyridin-3-yl)thiophen-2-yl)-5-oxa-7-azaspiro[3.5]non-6-en-6-amine] gave an IC50 [1] of 0.03 µM, an IC50 [2, 5] of 0.582 µM and an IC50 [3] of 1.36 µM. It also gave an IC50 [4] of 7.92 µM.

With `CC#Cc1cncc(-c2csc([C@]3(C)CC4(CCOCC4)OC(N)=N3)c2)c1` [Compound 8-104, (S)-4-methyl-4-(4-(5-(prop-1-ynyl)pyridin-3-yl)thiophen-2-yl)-1,9-dioxa-3-azaspiro[5.5]undec-2-en-2-amine] the IC50 [1] was 0.016 µM, the IC50 [2] was 0.157 µM and the IC50 [3] was 0.406 µM. For the same compound, the IC50 [4] was 14.8 µM.

With `CC#Cc1cncc(-c2csc([C@@]3(C)CC4(CCOCC4)OC(N)=N3)c2)c1` [Compound 8-105, (R)-4-methyl-4-(4-(5-(prop-1-ynyl)pyridin-3-yl)thiophen-2-yl)-1,9-dioxa-3-azaspiro[5.5]undec-2-en-2-amine] the IC50 [1] was 1.33 µM, the IC50 [2] was 7.47 µM and the IC50 [3] was 84.9 µM. The IC50 [4] was 5.25 µM.

`CC1(c2cc(-c3cncnc3)ccc2F)CC2(CCOCC2)OC(N)=N1` (centres unmarked) [Compound 8-106, 4-(2-fluoro-5-(pyrimidin-5-yl)phenyl)-4-methyl-1,9-dioxa-3-azaspiro[5.5]undec-2-en-2-amine] showed an IC50 [1] of 0.569 µM, an IC50 [2, 5] of 0.673 µM and an IC50 [3] of 12.6 µM. It also gave an IC50 [4] of over 30 µM.

With `CC#Cc1cncc(-c2csc(C3(C)CC4(COC4)SC(N)=N3)c2)c1` (centres unmarked) [Compound 8-112, 8-methyl-8-(4-(5-(prop-1-ynyl)pyridin-3-yl)thiophen-2-yl)-2-oxa-5-thia-7-azaspiro[3.5]non-6-en-6-amine] the IC50 [1] was 0.017 µM, the IC50 [2, 5] was 0.222 µM and the IC50 [3] was 0.227 µM.

In the case of `C[C@@]1(c2cc(NC(=O)c3ccc(C(F)(F)F)cn3)ccc2F)CC2(CCC(F)(F)CC2)OC(N)=N1` [Compound 9-132, (S)—N-(3-(2-amino-9,9-difluoro-4-methyl-1-oxa-3-azaspiro[5.5]undec-2-en-4-yl)-4-fluorophenyl)-5-(trifluoromethyl)picolinamide], the IC50 [1] is reported as 0.006 µM and the IC50 [2] is reported as 0.011 µM.

In the case of `C[C@@]1(c2cc(NC(=O)C3CC3)ccc2F)CC2(CCC(F)(F)CC2)OC(N)=N1` [Compound 9-134, (S)—N-(3-(2-amino-9,9-difluoro-4-methyl-1-oxa-3-azaspiro[5.5]undec-2-en-4-yl)-4-fluorophenyl)cyclopropanecarboxamide], the IC50 [1] is reported as 0.801 µM, the IC50 [2, 5] is reported as 0.882 µM and the IC50 [3] is reported as 2.33 µM.

`C[C@@]1(c2cc(NC(=O)c3ccc(C4CC4)cn3)ccc2F)CC2(CCC(F)(F)CC2)OC(N)=N1` [Compound 9-137, (S)—N-(3-(2-amino-9,9-difluoro-4-methyl-1-oxa-3-azaspiro[5.5]undec-2-en-4-yl)-4-fluorophenyl)-5-cyclopropylpicolinamide] was tested, and the IC50 [1] was 0.017 µM, the IC50 [2, 5] was 0.088 µM and the IC50 [3] was 1.83 µM.

In the case of `COc1cc(Cl)ccc1C(=O)Nc1ccc(F)c([C@]2(C)CC3(CCC3)OC(N)=N2)c1` [Compound 9-140, (S)—N-(3-(6-amino-8-methyl-5-oxa-7-azaspiro[3.5]non-6-en-8-yl)-4-fluorophenyl)-4-chloro-2-methoxybenzamide], the IC50 [1] is reported as 0.101 µM, the IC50 [2] is reported as 0.342 µM and the IC50 [3] is reported as 9.11 µM.

Work on `CC1(c2cc(NC(=O)c3ccc(F)cn3)ccc2F)CC2(CCCCC2)SC(N)=N1` (centres unmarked) [Compound 9-142, N-(3-(2-amino-4-methyl-1-thia-3-azaspiro[5.5]undec-2-en-4-yl)-4-fluorophenyl)-5-fluoropicolinamide] yielded an IC50 [2, 5] of 0.012 µM.

`C[C@]1(c2cc(NC(=O)c3ccc(F)cn3)ccc2F)CC2(CCOCC2)SC(N)=N1` [Compound 9-149, (R)—N-(3-(2-amino-4-methyl-9-oxa-1-thia-3-azaspiro[5.5]undec-2-en-4-yl)-4-fluorophenyl)-5-fluoropicolinamide] was tested, and the IC50 [1] was over 1 µM, the IC50 [3] was 8.49 µM and the IC50 [4] was 21.5 µM.

`C[C@]1(c2cc(NC(=O)c3ccc(Cl)cn3)ccc2F)CC2(CCOCC2)SC(N)=N1` [Compound 9-152, (R)—N-(3-(2-amino-4-methyl-9-oxa-1-thia-3-azaspiro[5.5]undec-2-en-4-yl)-4-fluorophenyl)-5-chloropicolinamide] gave an IC50 [3] of 1.56 µM and an IC50 [4] of 10.8 µM.

`COc1cnc(C(=O)Nc2ccc(F)c([C@]3(C)CC4(CCOCC4)SC(N)=N3)c2)cn1` [Compound 9-153, (S)—N-(3-(2-amino-4-methyl-9-oxa-1-thia-3-azaspiro[5.5]undec-2-en-4-yl)-4-fluorophenyl)-5-methoxypyrazine-2-carboxamide] gave an IC50 [2, 5] of under 0.123 µM, an IC50 [3] of 0.033 µM and an IC50 [4] of over 30 µM.

`C[C@@]1(c2cc(NC(=O)c3ccc(F)cn3)ccc2F)N=C(N)OC2(CCOCC2)C1(F)F` [Compound 9-156, (S)—N-(3-(2-amino-5,5-difluoro-4-methyl-1,9-dioxa-3-azaspiro[5.5]undec-2-en-4-yl)-4-fluorophenyl)-5-fluoropicolinamide] was tested, and the IC50 [1] was over 30 µM, the IC50 [2] was over 30 µM and the IC50 [3] was over 30 µM.

With `C[C@@]1(c2cc(NC(=O)c3ccc(C#N)cn3)ccc2F)N=C(N)OC2(CCC2)C1(F)F` [Compound 9-163, (S)—N-(3-(6-amino-9,9-difluoro-8-methyl-5-oxa-7-azaspiro[3.5]non-6-en-8-yl)-4-fluorophenyl)-5-cyanopicolinamide] the IC50 [1] was 13.4 µM, the IC50 [2] was over 30 µM and the IC50 [3] was 38.1 µM.

`COc1cnc(C(=O)Nc2ccc(F)c(C3(C)N=C(N)OC4(CCC4)C3(F)F)c2)cn1` (centres unmarked) [Compound 9-164, N-(3-(6-amino-9,9-difluoro-8-methyl-5-oxa-7-azaspiro[3.5]non-6-en-8-yl)-4-fluorophenyl)-5-methoxypyrazine-2-carboxamide] was tested, and the IC50 [2, 5] was 0.195 µM and the IC50 [4] was over 30 µM.

`C[C@@]1(c2cc(NCc3ccc(F)cn3)ccc2F)CC2(CCC2)OC(N)=N1` [Compound 10-169, (S)-8-(2-fluoro-5-((5-fluoropyridin-2-yl)methylamino)phenyl)-8-methyl-5-oxa-7-azaspiro[3.5]non-6-en-6-amine] showed an IC50 [1] of 3.72 µM, an IC50 [2] of 5.61 µM and an IC50 [3] of 179 µM.

Compound `C[C@@]1(c2cc(Nc3ncnc4cc(Cl)ccc34)ccc2F)CC2(CCC2)OC(N)=N1` [Compound 11-173, (S)-8-(5-(7-chloroquinazolin-4-ylamino)-2-fluorophenyl)-8-methyl-5-oxa-7-azaspiro[3.5]non-6-en-6-amine] has an IC50 [2, 5] of 0.687 µM and an IC50 [3] of 8.55 µM.

For `C[C@@]1(c2cc(/C=C/c3ccc(F)cc3)ccc2F)CC2(CCC2)OC(N)=N1` [Compound 12-177, (S,E)-8-(2-fluoro-5-(4-fluorostyryl)phenyl)-8-methyl-5-oxa-7-azaspiro[3.5]non-6-en-6-amine], the IC50 [1] was 1.16 µM, the IC50 [2] was 1.21 µM and the IC50 [3] was 21.7 µM.

`C[C@@]1(c2cc(/C=C/c3ccc(Cl)cc3)ccc2F)CC2(CCC2)OC(N)=N1` [Compound 12-179, (S,E)-8-(5-(4-chlorostyryl)-2-fluorophenyl)-8-methyl-5-oxa-7-azaspiro[3.5]non-6-en-6-amine] showed an IC50 [1] of 0.51 µM, an IC50 [2, 5] of 1.34 µM and an IC50 [3] of 4.64 µM.
